# Results as given in US12077537B2 (Gilead Sciences, Inc., priority 2020, dated 2024).
# Tested on: HIV-IIIb
# Test: Antiviral assay in MT4 cells
# Format: cell-based
# Details: Human immunodeficiency virus 1, MT4, 120 h; MT-4 cells mixed with HIV-IIIb at m.o.i. 0.003; 5 days at 37° C.; CellTiter-Glo luminescence; 50% decrease in signal, a measure of HIV-1 replication
# Protocol: Antiviral Assay in MT4 Cells For the antiviral assay, 40 μL of a concentration required to achieve a final effective 1× test concentration of 3-fold serially diluted compound in culture medium with 10% FBS was added to each well of a 384-well plate (10 concentrations) in quadruplicate. MT-4 cells were next mixed with HIV-IIIb at an m.o.i of 0.003 for 1 hour, after which time 35 μL of virus/cell mixture (2000 cells) was immediately added to each well containing 40 μL of diluted compound. The plates were then incubated at 37° C. for 5 days. After 5 days of incubation, 25 μl of 2× concentrated CellTiter-Glom Reagent (catalog #G7571, Promega Biosciences, Inc., Madison, WI) was added to each well containing MT-4 cells. Cell lysis was carried out by incubating at room temperature for 10 min and then chemiluminescence was read.
row,Structure (SMILES),EC50 [nM]
1,"Cc1[nH]c2ccccc2c1CC(=O)N[C@@H](Cc1ccccc1)c1nc2ccccc2n1-c1ccccc1 [Compound 2, (S)-2-(2-methyl-1H-indol-3-yl)-N-(2-phenyl-1-(1-phenyl-1H-benzo[d]imidazol-2-yl)ethyl)acetamide]",29700
2,"NC(=O)c1cc(-c2cc3sc(NC4COC4)nc3nc2[C@H](Cc2cc(F)cc(F)c2)NC(=O)Cn2nc(C(F)F)c3c2C(F)(F)CCC3(F)F)ccc1F [Compound 10, (S)-5-(5-(1-(2-(3-(difluoromethyl)-4,4,7,7-tetrafluoro-4,5,6,7-tetrahydro-1H-indazol-1-yl)acetamido)-2-(3,5-difluorophenyl)ethyl)-2-(oxetan-3-ylamino)thiazolo[4,5-b]pyridin-6-yl)-2-fluorobenzamide]",384
3,"NC(=O)c1cc(-c2cc3sc(O)nc3nc2[C@H](Cc2cc(F)cc(F)c2)NC(=O)Cn2nc(C(F)F)c3c2C(F)(F)CCC3(F)F)ccc1F [Compound 15-1, (S)-5-(5-(1-(2-(3-(difluoromethyl)-4,4,7,7-tetrafluoro-4,5,6,7-tetrahydro-1H-indazol-1-yl)acetamido)-2-(3,5-difluorophenyl)ethyl)-2-hydroxythiazolo[4,5-b]pyridin-6-yl)-2-fluorobenzamide]",318
4,"NC(=O)c1cc(-c2cc3scnc3nc2[C@H](Cc2cc(F)cc(F)c2)NC(=O)Cn2nc(C(F)F)c3c2C(F)(F)CCC3(F)F)ccc1F [Compound 15-2, (S)-5-(5-(1-(2-(3-(difluoromethyl)-4,4,7,7-tetrafluoro-4,5,6,7-tetrahydro-1H-indazol-1-yl)acetamido)-2-(3,5-difluorophenyl)ethyl)thiazolo[4,5-b]pyridin-6-yl)-2-fluorobenzamide]",326
5,"N#Cc1cc(-c2cc3scnc3nc2[C@H](Cc2cc(F)cc(F)c2)NC(=O)Cn2nc(C(F)F)c3c2C(F)(F)CCC3(F)F)ccc1F [Compound 15E, (S)—N-(1-(6-(3-cyano-4-fluorophenyl)thiazolo[4,5-b]pyridin-5-yl)-2-(3,5-difluorophenyl)ethyl)-2-(3-(difluoromethyl)-4,4,7,7-tetrafluoro-4,5,6,7-tetrahydro-1H-indazol-1-yl)acetamide]",2640
6,"O=C(Cn1nc(C(F)F)c2c1C(F)(F)CCC2(F)F)N[C@@H](Cc1cc(F)cc(F)c1)c1nc2ncsc2cc1-c1ccc(F)cc1 [Compound 16, (S)-2-(3-(difluoromethyl)-4,4,7,7-tetrafluoro-4,5,6,7-tetrahydro-1H-indazol-1-yl)-N-(2-(3,5-difluorophenyl)-1-(6-(4-fluorophenyl)thiazolo[4,5-b]pyridin-5-yl)ethyl)acetamide]",1020
7,"O=C(Cn1nc(C(F)F)c2c1C(F)(F)CCC2(F)F)N[C@H](Cc1cc(F)cc(F)c1)c1nc2ncsc2cc1-c1ccc(F)cc1 [Compound 17, (R)-2-(3-(difluoromethyl)-4,4,7,7-tetrafluoro-4,5,6,7-tetrahydro-1H-indazol-1-yl)-N-(2-(3,5-difluorophenyl)-1-(6-(4-fluorophenyl)thiazolo[4,5-b]pyridin-5-yl)ethyl)acetamide]",7990
8,"Cc1cc(Nc2nc3nc(C(Cc4cc(F)cc(F)c4)NC(=O)Cn4nc(C(F)F)c5c4C(F)(F)CCC5(F)F)c(-c4ccc(F)c(C(N)=O)c4)cc3s2)[nH]n1 (centres unmarked) [Compound 19, 5-(5-(1-(2-(3-(difluoromethyl)-4,4,7,7-tetrafluoro-4,5,6,7-tetrahydro-1H-indazol-1-yl)acetamido)-2-(3,5-difluorophenyl)ethyl)-2-((3-methyl-1H-pyrazol-5-yl)amino)thiazolo[4,5-b]pyridin-6-yl)-2-fluorobenzamide]",1050

# The next compounds have a lower EC50 than those just listed; values first:
row,EC50 [nM],Structure (SMILES)
1,303,"CN(C)CCNc1nc2nc(C(Cc3cc(F)cc(F)c3)NC(=O)Cn3nc(C(F)F)c4c3C(F)(F)CCC4(F)F)c(-c3ccc(F)c(C(N)=O)c3)cc2s1 (centres unmarked) [Compound 20, 5-(5-(1-(2-(3-(difluoromethyl)-4,4,7,7-tetrafluoro-4,5,6,7-tetrahydro-TH-indazol-1-yl)acetamido)-2-(3,5-difluorophenyl)ethyl)-2-((2-(dimethylamino)ethyl)amino)thiazolo[4,5-b]pyridin-6-yl)-2-fluorobenzamide]"
2,266,"NC(=O)c1cc(-c2cc3sc(NC4CCOC4)nc3nc2[C@H](Cc2cc(F)cc(F)c2)NC(=O)Cn2nc(C(F)F)c3c2C(F)(F)CCC3(F)F)ccc1F (stereo partly drawn) [Compound 9, 5-(5-((S)-1-(2-(3-(difluoromethyl)-4,4,7,7-tetrafluoro-4,5,6,7-tetrahydro-1H-indazol-1-yl)acetamido)-2-(3,5-difluorophenyl)ethyl)-2-((tetrahydrofuran-3-yl)amino)thiazolo[4,5-b]pyridin-6-yl)-2-fluorobenzamide]"
3,254,"NC(=O)c1cc(-c2cc3sc(N4CCOCC4)nc3nc2C(Cc2cc(F)cc(F)c2)NC(=O)Cn2nc(C(F)F)c3c2C(F)(F)CCC3(F)F)ccc1F (centres unmarked) [Compound 18, 5-(5-(1-(2-(3-(difluoromethyl)-4,4,7,7-tetrafluoro-4,5,6,7-tetrahydro-1H-indazol-1-yl)acetamido)-2-(3,5-difluorophenyl)ethyl)-2-morpholinothiazolo[4,5-b]pyridin-6-yl)-2-fluorobenzamide]"
4,162,"CC1(O)CN(c2nc3nc([C@H](Cc4cc(F)cc(F)c4)NC(=O)Cn4nc(C(F)F)c5c4C(F)(F)CCC5(F)F)c(-c4ccc(F)c(C(N)=O)c4)cc3s2)C1 [Compound 11, (S)-5-(5-(1-(2-(3-(difluoromethyl)-4,4,7,7-tetrafluoro-4,5,6,7-tetrahydro-1H-indazol-1-yl)acetamido)-2-(3,5-difluorophenyl)ethyl)-2-(3-hydroxy-3-methylazetidin-1-yl)thiazolo[4,5-b]pyridin-6-yl)-2-fluorobenzamide]"
5,162,"NC(=O)c1cc(-c2cc3sc(NCCN4CCOCC4)nc3nc2[C@H](Cc2cc(F)cc(F)c2)NC(=O)Cn2nc(C(F)F)c3c2C(F)(F)CCC3(F)F)ccc1F [Compound 8, (S)-5-(5-(1-(2-(3-(difluoromethyl)-4,4,7,7-tetrafluoro-4,5,6,7-tetrahydro-1H-indazol-1-yl)acetamido)-2-(3,5-difluorophenyl)ethyl)-2-((2-morpholinoethyl)amino)thiazolo[4,5-b]pyridin-6-yl)-2-fluorobenzamide]"
6,160,"NC(=O)c1cc(-c2cc3sc(N4CCOCC4)nc3nc2[C@H](Cc2cc(F)cc(F)c2)NC(=O)Cn2nc(C(F)F)c3c2C(F)(F)CCC3(F)F)ccc1F [Compound 3, (S)-5-(5-(1-(2-(3-(difluoromethyl)-4,4,7,7-tetrafluoro-4,5,6,7-tetrahydro-1H-indazol-1-yl)acetamido)-2-(3,5-difluorophenyl)ethyl)-2-morpholinothiazolo[4,5-b]pyridin-6-yl)-2-fluorobenzamide]"
7,158,"COCCNc1nc2nc([C@H](Cc3cc(F)cc(F)c3)NC(=O)Cn3nc(C(F)F)c4c3C(F)(F)CCC4(F)F)c(-c3ccc(F)c(C(N)=O)c3)cc2s1 [Compound 12, (S)-5-(5-(1-(2-(3-(difluoromethyl)-4,4,7,7-tetrafluoro-4,5,6,7-tetrahydro-1H-indazol-1-yl)acetamido)-2-(3,5-difluorophenyl)ethyl)-2-((2-methoxyethyl)amino)thiazolo[4,5-b]pyridin-6-yl)-2-fluorobenzamide]"
8,154,"COCCOCCNc1nc2nc([C@H](Cc3cc(F)cc(F)c3)NC(=O)Cn3nc(C(F)F)c4c3C(F)(F)CCC4(F)F)c(-c3ccc(F)c(C(N)=O)c3)cc2s1 [Compound 4, (S)-5-(5-(1-(2-(3-(difluoromethyl)-4,4,7,7-tetrafluoro-4,5,6,7-tetrahydro-1H-indazol-1-yl)acetamido)-2-(3,5-difluorophenyl)ethyl)-2-((2-(2-methoxyethoxy)ethyl)amino)thiazolo[4,5-b]pyridin-6-yl)-2-fluorobenzamide]"
9,127,"CN1CCN(c2nc3nc([C@H](Cc4cc(F)cc(F)c4)NC(=O)Cn4nc(C(F)F)c5c4C(F)(F)CCC5(F)F)c(-c4ccc(F)c(C(N)=O)c4)cc3s2)CC1 [Compound 7, (S)-5-(5-(1-(2-(3-(difluoromethyl)-4,4,7,7-tetrafluoro-4,5,6,7-tetrahydro-1H-indazol-1-yl)acetamido)-2-(3,5-difluorophenyl)ethyl)-2-(4-methylpiperazin-1-yl)thiazolo[4,5-b]pyridin-6-yl)-2-fluorobenzamide]"
10,126,"NC(=O)c1cc(-c2cc3sc(N4CC5(COC5)C4)nc3nc2[C@H](Cc2cc(F)cc(F)c2)NC(=O)Cn2nc(C(F)F)c3c2C(F)(F)CCC3(F)F)ccc1F [Compound 13, (S)-5-(5-(1-(2-(3-(difluoromethyl)-4,4,7,7-tetrafluoro-4,5,6,7-tetrahydro-TH-indazol-1-yl)acetamido)-2-(3,5-difluorophenyl)ethyl)-2-(2-oxa-6-azaspiro[3.3]heptan-6-yl)thiazolo[4,5-b]pyridin-6-yl)-2-fluorobenzamide]"
11,98.6,"CC(C)(O)CNc1nc2nc([C@H](Cc3cc(F)cc(F)c3)NC(=O)Cn3nc(C(F)F)c4c3C(F)(F)CCC4(F)F)c(-c3ccc(F)c(C(N)=O)c3)cc2s1 [Compound 6, (S)-5-(5-(1-(2-(3-(difluoromethyl)-4,4,7,7-tetrafluoro-4,5,6,7-tetrahydro-1H-indazol-1-yl)acetamido)-2-(3,5-difluorophenyl)ethyl)-2-((2-hydroxy-2-methylpropyl)amino)thiazolo[4,5-b]pyridin-6-yl)-2-fluorobenzamide]"
12,76.9,NC(=O)c1cc(-c2cc3sc(N4CCN(C5COC5)CC4)nc3nc2[C@H](Cc2cc(F)cc(F)c2)NC(=O)Cn2nc(C(F)F)c3c2C(F)(F)CCC3(F)F)ccc1F [Compound 5]
